Measured values taken from patent US20240180883A1, “TREATMENT OF MIGRAINE” (Allergan Pharmaceuticals International Limited, priority 2020, published 2024).
Where “and” joins values, the source holds several entries; their conditions need not be identical. Equal entries are not always repeated.

Columns and labels:
Assay type in all cases: in vivo, human
[1] = Hepatic impairment study: adverse events
Excerpt: Participants were queried regarding any AEs or SAEs at the time of each vital sign assessment, as well as at each visit through to the follow-up visit.
Criteria for potential Hy's Law cases were as follows: AST or ALT≥3×ULN and Total Bilirubin≥2×ULN and Alkaline phosphatase<2×ULN.

[2] = Phase 1 hepatic impairment PK study, single 100 mg dose; settings: 100 mg single oral dose; for AUC(0-inf) / AUC(0-t) / Cmax / Tmax / Vd/F / half-life: both sexes, human, plasma, po, 100 mg; for Tmax: read-out: Tmax, median (min-max); for Vd/F: read-out: Vz/F, mean ±SD; for half-life: read-out: t1/2, mean ±SD (converted)
Excerpt: The study was intended to enroll 24 male and female participants with hepatic impairment (8 mildly impaired, 8 moderately impaired, and 8 severely impaired) and 8 healthy male and female participants with normal hepatic function, aged 18 through 75 years, who were matched closely to the age, weight, and gender of the hepatically impaired groups.
Participants with hepatic impairment were categorized according to the Child-Pugh classification. Participants with moderate hepatic impairment (Child-Pugh B classification) were not enrolled until 4 patients with mild hepatic impairment (Child-Pugh A classification) had completed the study; participants with severe hepatic impairment (Child-Pugh C classification) were not to be enrolled until 4 patients with moderate hepatic impairment had completed the study. […] Healthy participants with normal hepatic function were recruited after participants with hepatic impairment had been enrolled in the study, in order to match them as closely as possible to the hepatically impaired participants with respect to age, weight, and gender. Participants with normal hepatic function were matched specifically according to age, not to exceed 5 years between the means of the normal group and the 3 hepatically impaired groups. Weight range deviated<20% between the means of the normal group and the 3 hepatically impaired groups; and gender, as much as possible to match the ratio of the normal hepatic function group to the 3 hepatically impaired groups.
Fasting continued for 4 hours after dosing. Because minimal to no accumulation was expected after once daily repeated dosing for ubrogepant, a single-dose study was considered adequate to satisfy the objectives of the present study.
Sampling was also done at the following times for plasma protein binding determinations: Day 1 at 0 hour (predose) and 2 hours post dose.

[3] = Study B: drug interaction PK with rifampin; settings: for half-life: read-out: Apparent terminal t1/2, mean (SD) (converted)
Excerpt: Study B (rifampin) had two treatment periods. […] All treatments were received under fasted conditions.
Healthy adults aged 19-50 years for Study A and 18-45 years for Study B were eligible to participate. […] For study B, participants had to have a BMI between 18.0 and 30 kg/m^2. Exclusion criteria for both studies included hypersensitivity to any study drug; exposure to hepatitis B virus, hepatitis C virus, or HIV; or use of any drug or substance known to affect CYP enzymes or P-gp.

[4] = 100 mg single oral dose, all 28 participants
[5] = 100 mg single oral dose, mild hepatic impairment
[6] = 100 mg single oral dose, moderate hepatic impairment
[7] = 100 mg single oral dose, normal hepatic function
[8] = 100 mg single oral dose, severe hepatic impairment
[9] = coadministered with rifampin 600 mg vs alone
[10] = ubrogepant 100 mg + rifampin 600 mg
[11] = ubrogepant 100 mg alone, listed as Ubrogepant

With `C[C@@H]1[C@H](c2ccccc2)C[C@H](NC(=O)c2cnc3c(c2)C[C@@]2(C3)C(=O)Nc3ncccc32)C(=O)N1CC(F)(F)F` [ubrogepant, (3′S)-N-((3S,5S,6R)-6-methyl-2-oxo-5-phenyl-1-(2,2,2-trifluoroethyl)piperidin-3-yl)-2′-oxo-1′,2′,5,7-etrahydrospiro[cyclopenta[b]pyridine-6,3′-pyrrolo[2,3-b]pyridine]-3-carboxamide] the “changes in laboratory parameters, vital signs, or ECG measurements” value ([1]; 100 mg single oral dose) was “no clinically relevant changes in laboratory parameters, vital signs, or ECG measurements”, the “participants with TEAEs, overall” value [1, 4] was 17.9% and the “participants with headache, overall” value [1, 4] was 2 participants. For the same molecule, the “AE leading to study discontinuation” value [1, 5] was 0 n (%), the “Any SAE” value [1, 5] was 0 n (%) and the “Any TEAE” value [1, 5] was 3 (37.5) n (%). The “Any treatment-related TEAE” value [1, 5] was 2 (25.0) n (%), the Deaths [1, 5] was 0 n (%) and the Diarrhoea [1, 5] was 1 (12.5) n (%). The Dizziness [1, 5] was 0 n (%), the Dyspepsia [1, 5] was 1 (12.5) n (%) and the “Gastrointestinal Disorders” value [1, 5] was 2 (25.0) n (%). The Headache [1, 5] was 1 (12.5) n (%), the “Nervous System Disorders” value [1, 5] was 1 (12.5) n (%) and the “AE leading to study discontinuation” value [1, 6] was 0 n (%). The “Any SAE” value [1, 6] was 0 n (%), the “Any TEAE” value [1, 6] was 2 (25.0) n (%) and the “Any treatment-related TEAE” value [1, 6] was 2 (25.0) n (%). For the same molecule, the Deaths [1, 6] was 0 n (%), the Diarrhoea [1, 6] was 0 n (%) and the Dizziness [1, 6] was 1 (12.5) n (%). For the same molecule, the Dyspepsia [1, 6] was 0 n (%), the “Gastrointestinal Disorders” value [1, 6] was 0 n (%) and the Headache [1, 6] was 1 (12.5) n (%). The “Nervous System Disorders” value [1, 6] was 2 (25.0) n (%), the “AE leading to study discontinuation” value [1, 7] was 0 n (%) and the “Any SAE” value [1, 7] was 0 n (%). The “Any TEAE” value [1, 7] was 0 n (%), the “Any treatment-related TEAE” value [1, 7] was 0 n (%) and the Deaths [1, 7] was 0 n (%). For the same molecule, the Diarrhoea [1, 7] was 0 n (%), the Dizziness [1, 7] was 0 n (%) and the Dyspepsia [1, 7] was 0 n (%). For the same molecule, the “Gastrointestinal Disorders” value [1, 7] was 0 n (%), the Headache [1, 7] was 0 n (%) and the “Nervous System Disorders” value [1, 7] was 0 n (%). For the same molecule, the “AE leading to study discontinuation” value [1, 8] was 0 n (%), the “Any SAE” value [1, 8] was 0 n (%) and the “Any TEAE” value [1, 8] was 0 n (%). For the same molecule, the “Any treatment-related TEAE” value [1, 8] was 0 n (%), the Deaths [1, 8] was 0 n (%) and the Diarrhoea [1, 8] was 0 n (%). The Dizziness [1, 8] was 0 n (%), the Dyspepsia [1, 8] was 0 n (%) and the “Gastrointestinal Disorders” value [1, 8] was 0 n (%). For the same molecule, the Headache [1, 8] was 0 n (%), the “Nervous System Disorders” value [1, 8] was 0 n (%) and the tolerability ([1]; healthy participants and participants with mild to severe hepatic impairment) was “well-tolerated”. For the same molecule, the “CL/F, mean ±SD” value ([2]; mild hepatic impairment) was 66.38 ± 26.15 L/h, the “AUC0-∞ (exposure) higher than in normal hepatic function” value ([2]; moderate hepatic impairment) was 52% and 50% and the “CL/F, mean ±SD” value ([2]; moderate hepatic impairment) was 49.78 ± 23.84 L/h. For the same molecule, the “Cmax higher than in normal hepatic function” value ([2]; moderate hepatic impairment) was 25%, the “CL/F, mean ±SD” value ([2]; normal hepatic function) was 69.01 ± 23.54 L/h and the “AUC0-∞ (exposure) higher than in normal hepatic function” value ([2]; severe hepatic impairment) was 115%. The “CL/F, mean ±SD” value ([2]; severe hepatic impairment) was 31.23 ± 7.49 L/h, the “Cmax higher than in normal hepatic function” value ([2]; severe hepatic impairment) was 40% and the AUC(0-inf) ([2]; mild hepatic impairment, read-out: AUC0-inf, mean ±SD) was 1760 ± 775 ng·h/mL. It also gave an AUC(0-t) ([2]; mild hepatic impairment, read-out: AUC0-t, mean ±SD) of 1750 ± 767 ng·h/mL, a Cmax ([2]; mild hepatic impairment, read-out: Cmax, mean ±SD) of 411 ± 190 ng/mL and a Tmax ([2]; mild hepatic impairment) of 1.5 h. For the same molecule, the Vd/F ([2]; mild hepatic impairment) was 559 ± 358 L, the half-life ([2]; mild hepatic impairment) was 6.56 ± 5.93 h and the AUC(0-t) ([2]; mild-impaired, read-out: Geometric LSM AUC0-t, Test) was 1610 ng·h/mL. The AUC(0-inf) ([2]; mild-impaired, read-out: Geometric LSM AUC0-∞, Test) was 1630 ng·h/mL, the Cmax ([2]; mild-impaired, read-out: Geometric LSM Cmax, Test) was 375 ng/mL and the AUC(0-inf) ([2]; moderate hepatic impairment, read-out: AUC0-inf, mean ±SD) was 2820 ± 2060 ng·h/mL. It also gave an AUC(0-t) ([2]; moderate hepatic impairment, read-out: AUC0-t, mean ±SD) of 2780 ± 2020 ng·h/mL, a Cmax ([2]; moderate hepatic impairment, read-out: Cmax, mean ±SD) of 480 ± 189 ng/mL and a Tmax ([2]; moderate hepatic impairment) of 2 h. The Vd/F ([2]; moderate hepatic impairment) was 365 ± 130 L, the half-life ([2]; moderate hepatic impairment) was 5.95 ± 2.68 h and the AUC(0-t) ([2]; moderate-impaired, read-out: Geometric LSM AUC0-t, Test) was 2300 ng·h/mL. It also gave an AUC(0-inf) ([2]; moderate-impaired, read-out: Geometric LSM AUC0-∞, Test) of 2320 ng·h/mL, a Cmax ([2]; moderate-impaired, read-out: Geometric LSM Cmax, Test) of 449 ng/mL and an AUC(0-inf) ([2]; normal hepatic function, read-out: AUC0-inf, mean ±SD) of 1600 ± 533 ng·h/mL. It also gave an AUC(0-t) ([2]; normal hepatic function, read-out: AUC0-t, mean ±SD) of 1590 ± 530 ng·h/mL, a Cmax ([2]; normal hepatic function, read-out: Cmax, mean ±SD) of 406 ± 219 ng/mL and an AUC(0-t) ([2]; normal hepatic function, read-out: Geometric LSM AUC0-t, Reference) of 1510 ng·h/mL. It also gave an AUC(0-inf) ([2]; normal hepatic function, read-out: Geometric LSM AUC0-∞, Reference) of 1520 ng·h/mL, a Cmax ([2]; normal hepatic function, read-out: Geometric LSM Cmax, Reference) of 360 ng/mL and a Tmax ([2]; normal hepatic function) of 1.75 h. It also gave a Vd/F ([2]; normal hepatic function) of 533 ± 320 L, a half-life ([2]; normal hepatic function) of 5.6 ± 3.68 h and an AUC(0-inf) ([2]; severe hepatic impairment, read-out: AUC0-inf, mean ±SD) of 3330 ± 705 ng·h/mL. The AUC(0-t) ([2]; severe hepatic impairment, read-out: AUC0-t, mean ±SD) was 3310 ± 704 ng·h/mL, the Cmax ([2]; severe hepatic impairment, read-out: Cmax, mean ±SD) was 509 ± 75.8 ng/mL and the Tmax ([2]; severe hepatic impairment) was 1.5 h. For the same molecule, the Vd/F ([2]; severe hepatic impairment) was 248 ± 29.9 L, the half-life ([2]; severe hepatic impairment) was 5.62 ± 0.62 h and the AUC(0-t) ([2]; severe-impaired, read-out: Geometric LSM AUC0-t, Test) was 3250 ng·h/mL. The AUC(0-inf) ([2]; severe-impaired, read-out: Geometric LSM AUC0-∞, Test) was 3270 ng·h/mL, the Cmax ([2]; severe-impaired, read-out: Geometric LSM Cmax, Test) was 505 ng/mL and the “reduction in ubrogepant AUC0-t” value [3, 9] was 78%. The “reduction in ubrogepant Cmax” value [3, 9] was 69%, the AUC(0-t) ([3]; human, plasma, oral, 100 mg, ubrogepant 100 mg alone, read-out: AUC0-t, mean (SD)) was 1880 ng·h/mL and the AUC(0-inf) ([3]; human, plasma, oral, 100 mg, ubrogepant 100 mg alone, read-out: AUC0-∞, mean (SD)) was 1910 ng·h/mL. For the same molecule, the half-life ([3]; human, plasma, oral, 100 mg, ubrogepant 100 mg alone) was 4.4 h, the Cmax ([3]; human, plasma, oral, 100 mg, ubrogepant 100 mg alone, read-out: Cmax, mean (SD)) was 416 ng/mL and the AUC(0-t) ([3]; human, plasma, oral, 100 mg, ubrogepant 100 mg alone, read-out: Geometric LSM AUC0-t, Reference) was 1720 ng·h/mL. The AUC(0-inf) ([3]; human, plasma, oral, 100 mg, ubrogepant 100 mg alone, read-out: Geometric LSM AUC0-∞, Reference) was 1750 ng·h/mL, the Cmax ([3]; human, plasma, oral, 100 mg, ubrogepant 100 mg alone, read-out: Geometric LSM Cmax, Reference) was 375 ng/mL and the Tmax ([3]; human, plasma, oral, 100 mg, read-out: Tmax, median (range)) was 2 h. The Vd/F ([3]; human, plasma, oral, 100 mg, read-out: Vz/F) was 390 ± 174 L, the AUC(0-t) ([3]; human, plasma, oral, rifampin 600 mg in combination with ubrogepant 100 mg, read-out: Geometric LSM AUC0-t, Test) was 378 ng·h/mL and the AUC(0-inf) ([3]; human, plasma, oral, rifampin 600 mg in combination with ubrogepant 100 mg, read-out: Geometric LSM AUC0-∞, Test) was 379 ng·h/mL. For the same molecule, the Cmax ([3]; human, plasma, oral, rifampin 600 mg in combination with ubrogepant 100 mg, read-out: Geometric LSM Cmax, Test) was 118 ng/mL, the AUC(0-t) ([3]; human, plasma, oral, ubrogepant 100 mg + rifampin 600 mg, read-out: AUC0-t, mean (SD)) was 396 ng·h/mL and the AUC(0-inf) ([3]; human, plasma, oral, ubrogepant 100 mg + rifampin 600 mg, read-out: AUC0-∞, mean (SD)) was 397 ng·h/mL. For the same molecule, the half-life ([3]; human, plasma, oral, ubrogepant 100 mg + rifampin 600 mg) was 3 h, the Cmax ([3]; human, plasma, oral, ubrogepant 100 mg + rifampin 600 mg, read-out: Cmax, mean (SD)) was 136 ng/mL and the “Apparent terminal t1/2, mean (SD)” value [3, 10] was 3.04 (0.64) h. For the same molecule, the CL/F [3, 10] was 282.87 ± 103.74 L/h, the CL/F ([3]; ubrogepant 100 mg alone) was 62.77 ± 28.33 L/h and the “Tmax, median (range)” value ([3]; ubrogepant 100 mg alone) was 2 h. The “Apparent terminal t1/2, mean (SD)” value [3, 11] was 4.36 (0.75) h, the “Tmax, median (range)” value [3, 11] was 2.00 (1.00-4.00) h and the “exposure of ubrogepant on co-administration” value ([3]; with rifampin, a strong CYP3A4 inducer) was “significant reduction in ubrogepant exposure”.
